# Laboratory results published in US20170275298A1, “INHIBITORS OF THE RENAL OUTER MEDULLARY POTASSIUM CHANNEL” (Merck Sharp & Dohme Corp., priority 2014, published 2017).
# Molecular target: T1, hROMK (hKir1.1) (Homo sapiens, UniProt P48048)
# T1 construct: expressed in transfected cells
# T1 sequence (P48048 1-391): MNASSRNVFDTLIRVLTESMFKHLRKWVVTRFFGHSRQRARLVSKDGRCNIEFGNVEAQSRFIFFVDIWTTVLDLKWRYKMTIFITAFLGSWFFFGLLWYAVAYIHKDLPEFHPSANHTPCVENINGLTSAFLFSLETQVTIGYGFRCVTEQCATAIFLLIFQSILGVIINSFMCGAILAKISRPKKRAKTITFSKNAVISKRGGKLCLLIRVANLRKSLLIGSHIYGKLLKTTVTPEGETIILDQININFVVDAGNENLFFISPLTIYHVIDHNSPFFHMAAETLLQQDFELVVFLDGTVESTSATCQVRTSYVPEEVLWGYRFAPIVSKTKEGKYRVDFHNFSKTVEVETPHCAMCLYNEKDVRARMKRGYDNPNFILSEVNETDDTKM
# Assay: Thallium Flux Assay (ROMK channel functional thallium flux assay)
# Type: cell-based
# Details: HEK293 cells stably expressing hROMK (hKir1.1); FluxOR thallium flux, FLIPR-Tetra, 30 min compound incubation; read-out: ROMK TI IC50
# Method: The following Thallium Flux Assay was performed on each of the final product compounds in the Examples.
# HEK293 cells stably expressing hROMK (hKir1.1) were grown at 37° C. in a 10% CO2 humidified incubator in complete growth media: Dulbecco's Modified Eagle Medium supplemented with non-essential amino acids, Penicillin/Streptomycin/Glutamine, G418 and FBS. At >80% confluency, the media was aspirated from the flask and rinsed with 10 mL calcium/magnesium-free PBS. […] To dislodge the cell, the side of the flask was gently banged with one's hand. The cells completely titrated and then the cells were transferred to 25 mL complete media, centrifuged at 1,500 rpm for 6 min followed by resuspension in complete growth media and determine cell concentration. […] Under ideal growth conditions and appropriate tissue culture practices, this cell line is stable for 40-45 passages.
# • FluxOR™ Reagent (Component A) • FluxOR™ Assay Buffer (Component B)—10× Concentrate • PowerLoad™ Concentrate (Component C)—100× Concentrate • Probenecid (Component D)—Lyophilized sample is kept at −20° C. Water soluble, 100× after solubilization in 1 mL water. […] Store at 4° C. • Thallium sulfate (Tl2SO4) Concentrate (Component G)—50 mM in water. Store at 4° C. • DMSO (dimethyl sulfoxide, Component H)—1 mL (100%)
# Can be stored at room temperature • Stimulant Buffer (prepared at 5× final concentration in 1×FluxOR™ Chloride-Free Buffer): 7.5 mM thallium sulfate and 0.75 mM potassium sulfate (to give a final assay concentration of 3 mM Thallium/0.3 mM potassium). Store at 4° C. when not in use. If kept sterile, this solution is good for months.
# The ROMK channel functional thallium flux assay was performed in 384 wells, using the FLIPR-Tetra instrument. HEK-hKir1.1 cells were seeded in Poly-D-Lysine microplates and kept in a 37° C.-10% CO2 incubator overnight. On the day of the experiment, the growth media was replaced with the FluxOR™ reagent loading buffer and incubated, protected from light, at ambient temperature (23-25° C.) for 90 min. The loading buffer was replaced with assay buffer±test compound followed by 30 min incubation at ambient temperature, where the thallium/potassium stimulant was added to the microplate.
# 1. Seed HEK-hKir1.1 cells (50 μl at 20,000 cells/well) in 384-well PDL coated Microplates 2. Allow cells to adhere overnight in humidified 37° C./10% CO2 incubator 3. Completely remove cell growth media from microplate and replace with 25 μl loading buffer 4. Incubate Microplate at room temperature, protected form light, for 90 min 5. Remove loading buffer and replace with 25 μl 1× Assay Buffer±test compound. 6. Incubate microplate at room temperature, protected from light, for 30 min 7. […] Excitation=400 nm, Emission=460 & 580 nm. Collect data for ˜10 min.
# The fluorescence intensity of wells containing 3 μM of a standard control ROMK inhibitor of the present invention was used to define the ROMK-sensitive component of thallium flux. Fluorescence in the presence of test compounds was normalized to control values to provide % fluorescence change.
row,Structure (SMILES),IC50 [nM]
1,"Cc1nsc(N2CCC3(CCN(C[C@H](O)c4ccc5c(c4C)COC5=O)CC3)C2)n1 [Example 1, 5-{(1R)-1-hydroxy-2-[2-(3-methyl-1,2,4-thiadiazol-5-yl)-2,8-diazaspiro[4.5]dec-8-yl]ethyl}-4-methyl-2-benzofuran-1(3H)-one]",251
2,"Cc1c([C@@H](O)CN2CCC3(CC2)CCN(c2nc(Cl)cs2)C3)ccc2c1COC2=O [Example 2, 5-{(1R)-2-[2-(4-chloro-1,3-thiazol-2-yl)-2,8-diazaspiro[4.5]dec-8-yl]-1-hydroxyethyl}-4-methyl-2-benzofuran-1(3H)-one]",935
3,"CC(=O)OCc1nsc(N2CCC3(CCN(C[C@H](O)c4ccc5c(c4C)COC5=O)CC3)C2)n1 [Example 3, (5-{8-[(2R)-2-hydroxy-2-(4-methyl-1-oxo-1,3-dihydro-2-benzofuran-5-yl)ethyl]-2,8-diazaspiro[4.5]dec-2-yl}-1,2,4-thiadiazol-3-yl)methyl acetate]",100
4,"Cc1c([C@@H](O)CN2CCC3(CC2)CCN(c2nsc(Cl)n2)C3)ccc2c1COC2=O [Example 4, (R)-5-(2-(2-(5-chloro-1,2,4-thiadiazol-3-yl)-2,8-diazaspiro[4.5]decan-8-yl)-1-hydroxyethyl)-4-methylisobenzofuran-1(3H)-one]",45.1
5,"Cc1c([C@@H](O)CN2CCC3(CC2)CCN(c2nc(Cl)ns2)C3)ccc2c1COC2=O [Example 5, (R)-5-(2-(2-(3-chloro-1,2,4-thiadiazol-5-yl)-2,8-diazaspiro[4.5]decan-8-yl)-1-hydroxyethyl)-4-methylisobenzofuran-1(3H)-one]",64.8
6,"COc1ccc(N2CCC3(CCN(C[C@H](O)c4cc(OC)c(C#N)cn4)CC3)C2)nn1 [Example 6, (S)-6-(1-hydroxy-2-(2-(6-methoxypyridazin-3-yl)-2,8-diazaspiro[4.5]decan-8-yl)ethyl)-4-methoxynicotinonitrile]",476
7,"Cc1c([C@@H](O)CN2CCC3(CC2)CCN(c2ccns2)C3)ccc2c1COC2=O [Example 7, (R)-5-(1-hydroxy-2-(2-(isothiazol-5-yl)-2,8-diazaspiro[4.5]decan-8-yl)ethyl)-4-methylisobenzofuran-1(3H)-one]",149
8,"Cc1c([C@@H](O)CN2CCC3(CC2)CCN(c2ncns2)C3)ccc2c1COC2=O [Example 8, (R)-5-(2-(2-(1,2,4-thiadiazol-5-yl)-2,8-diazaspiro[4.5]decan-8-yl)-1-hydroxyethyl)-4-methylisobenzofuran-1(3H)-one]",526
9,"Cc1c([C@@H](O)CN2CCC3(CC2)CCN(c2cc(C(F)(F)F)ncn2)C3)ccc2c1COC2=O [Example 9, (R)-5-(1-hydroxy-2-(2-(6-(trifluoromethyl)pyrimidin-4-yl)-2,8-diazaspiro[4.5]decan-8-yl)ethyl)-4-methylisobenzofuran-1(3H)-one]",173
10,"COc1cc(N2CCC3(CCN(C[C@H](O)c4ccc5c(c4C)COC5=O)CC3)C2)nc(OC)n1 [Example 10, (R)-5-(2-(2-(2,6-dimethoxypyrimidin-4-yl)-2,8-diazaspiro[4.5]decan-8-yl)-1-hydroxyethyl)-4-methylisobenzofuran-1(3H)-one]",725
11,"Cc1c([C@@H](O)CN2CCC3(CC2)CCN(c2ccc(=O)n(C)n2)C3)ccc2c1COC2=O [Example 11, (R)-6-(8-(2-hydroxy-2-(4-methyl-1-oxo-1,3-dihydroisobenzofuran-5-yl)ethyl)-2,8-diazaspiro[4.5]decan-2-yl)-2-methylpyridazin-3(2H)-one]",67.6
12,"COc1cc(N2CCC3(CCN(C[C@H](O)c4ccc5c(c4C)COC5=O)CC3)C2)ccn1 [Example 12, (R)-5-(1-hydroxy-2-(2-(2-methoxypyridin-4-yl)-2,8-diazaspiro[4.5]decan-8-yl)ethyl)-4-methylisobenzofuran-1(3H)-one]",962
13,"COc1nsc(N2CCC3(CCN(C[C@H](O)c4ccc5c(c4C)COC5=O)CC3)C2)n1 [Example 13, (R)-5-(1-hydroxy-2-(2-(3-methoxy-1,2,4-thiadiazol-5-yl)-2,8-diazaspiro[4.5]decan-8-yl)ethyl)-4-methylisobenzofuran-1(3H)-one]",336
14,"COc1nccc(N2CCC3(CCN(C[C@H](O)c4ccc5c(c4C)COC5=O)CC3)C2)n1 [Example 14, (R)-5-(1-hydroxy-2-(2-(2-methoxypyrimidin-4-yl)-2,8-diazaspiro[4.5]decan-8-yl)ethyl)-4-methylisobenzofuran-1(3H)-one]",420
15,"COc1ncc(N2CCC3(CCN(C[C@H](O)c4ccc5c(c4C)COC5=O)CC3)C2)cn1 [Example 15, (R)-5-(1-hydroxy-2-(2-(2-methoxypyrimidin-5-yl)-2,8-diazaspiro[4.5]decan-8-yl)ethyl)-4-methylisobenzofuran-1(3H)-one]",284

# Second part, the compound after the results:
row,IC50 [nM],Structure (SMILES)
1,252,"Cc1c([C@H](O)CN2CCC3(CC2)CCN(c2ccc(=O)n(C)n2)C3=O)ccc2c1COC2=O (single isomer, unassigned) [Example 57]"
2,36,"[2H]C([2H])(N1CCC2(CCN(c3ccc(=O)n(C)n3)C2=O)CC1)[C@]([2H])(O)c1ccc2c(c1C)COC2=O (single isomer, unassigned) [Example 58]"
3,462,"[2H]C([2H])(N1CCC2(CCN(c3ccc(=O)n(C)n3)C2=O)CC1)[C@@]([2H])(O)c1ccc2c(c1C)COC2=O (single isomer, unassigned) [Example 59]"
4,418,Cc1c([C@@H](O)CN2CCC3(CC2)CN(c2ccns2)C3)ccc2c1COC2=O [Example 16]
5,88.3,"Cc1c([C@@H](O)CN2CCC3(CC2)CN(c2ccc(=O)n(C)n2)CCO3)ccc2c1COC2=O [Example 17, (R)-6-(9-(2-hydroxy-2-(4-methyl-1-oxo-1,3-dihydroisobenzofuran-5-yl)ethyl)-1-oxa-4,9-diazaspiro[5.5]undecan-4-yl)-2-methylpyridazin-3(2H)-one]"
6,376,"Cc1nc(-n2cnnn2)ccc1[C@@H](O)CN1CCC2(CC1)CN(c1ccc(=O)n(C)n1)CCO2 [Example 18, (R)-6-(9-(2-hydroxy-2-(2-methyl-6-(1H-tetrazol-1-yl)pyridin-3-yl)ethyl)-1-oxa-4,9-diazaspiro[5.5]undecan-4-yl)-2-methylpyridazin-3(2H)-one]"
7,540,"Cc1cc(-n2cnnn2)ccc1[C@@H](O)CN1CCC2(CC1)CN(c1ccc(=O)n(C)n1)CCO2 [Example 19, (R)-6-(9-(2-hydroxy-2-(2-methyl-4-(1H-tetrazol-1-yl)phenyl)ethyl)-1-oxa-4,9-diazaspiro[5.5]undecan-4-yl)-2-methylpyridazin-3(2H)-one]"
8,51.2,"Cc1c(CCN2CCC3(CC2)CCN(c2ccc(=O)n(C)n2)C3=O)ccc2c1COC2=O [Example 20, 8-(2-(4-methyl-1-oxo-1,3-dihydroisobenzofuran-5-yl)ethyl)-2-(1-methyl-6-oxo-1,6-dihydropyridazin-3-yl)-2,8-diazaspiro[4.5]decan-1-one]"
9,568,"Cn1nc(N2CCC3(CCN(CCc4ccc(-n5cnnn5)nn4)CC3)C2=O)ccc1=O [Example 21, 8-(2-(6-(1H-tetrazol-1-yl)pyridazin-3-yl)ethyl)-2-(1-methyl-6-oxo-1,6-dihydropyridazin-3-yl)-2,8-diazaspiro[4.5]decan-1-one]"
10,420,"Cn1nc(N2CCC3(CCN(CCc4ccc(-n5cnnn5)nc4)CC3)C2=O)ccc1=O [Example 22, 8-(2-(6-(1H-tetrazol-1-yl)pyridin-3-yl)ethyl)-2-(1-methyl-6-oxo-1,6-dihydropyridazin-3-yl)-2,8-diazaspiro[4.5]decan-1-one]"
